Measurements taken from US5252495A, “Immunoassay for physostigmine” (priority 1992, dated 1993).
Counter-ions that a name gives are not always drawn.

Key:
[1] = molecular target: Antibody from Mannich Immunogen; test: RIA cross-reactivity: competition with labeled physostigmine for antibody from Mannich immunogen; format: binding, New Zealand white rabbits; settings: 1:100, max 1000 ng tested
Protocol: (§1) Antibodies to the physostigmine-BSA immunogen were produced by injecting male New Zealand white rabbits with immunogens formed by either method. Prior to injection, the immunogen was emulsified with an equal volume of complete Freund's adjuvant, purchased from Difco Laboratories of Detroit, Mich. The initial immunization consisted of 0.8 mg of protein injected intracutaneously in multiple dorsal sites of the rabbits. Booster injections containing 0.8 mg of immunogen and incomplete Freund's adjuvant were administered every two months for the next six months. Antisera was collected one week after each booster injection from the central ear vein. The blood was allowed to clot at room temperature and then centrifuged at 1500×g for 15 minutes. The separated serum was stored frozen at -20° C. until assayed for the presence of physostigmine antibody.
In the assay procedure ^3 H-Physostigmine having specificity of 19.0 Ci/mmole and purchased from the Amersham Corp. of Arlington Heights, Ill., was used as tracer. […] Both standard and sample tubes were always analyzed in duplicate. The assay was carried out according to the protocol shown in Table 1 with the reagents were added to the assay tubes in the order shown.
(§2) According to the protocol for the RIA of the present invention, after the addition of antisera, the contents of the tubes were mixed and incubated for 3 hours at 4° C. The antigen which bound to the antibody was separated by adding saturated ammonium sulfate and centrifuging at 2500×g for 15 minutes. After aspiration of the supernatant, the precipitate was washed one time with 50% saturated ammonium sulfate; then the mixture was centrifuged and the supernatent removed. The precipitate was dissolved in 1.0 ml of distilled water, and the solution was transferred to a scintillation vial containing 10.0 ml of acquasol 2.
(§3) The radioactivity which was bound to the antibody was determined in counts per minute with a Beckman LS-3133P Liquid Scintillation Counter. […] The concentration of physostigmine is plotted on the horizontal axis, while the percent inhibition of binding radioactively labeled is plotted on the vertical axis. […] Concentrations of physostigmine in unknown samples were determined according to conventional calculations from the standard curve.
(§4) Competition of the compounds with labeled physostigmine (5000 dpm) for antibody binding sites was determined arbitrarily at 50% inhibition of the physostigmine on the standard curve. Each compound was tested for cross-reactivity with the antibody. The maximum concentration of each compound tested was 1000 ng.

[2] = molecular target: Antibody from Diazo-coupled Immunogen; test: RIA cross-reactivity: competition with labeled physostigmine for antibody from diazo-coupled immunogen; format: binding, New Zealand white rabbits; settings: 1:150, max 1000 ng tested
Protocol: as §1
In the assay procedure ^3 H-Physostigmine having specificity of 19.0 Ci/mmole and purchased from the Amersham Corp. of Arlington Heights, Ill., was used as tracer. The dilution of tracer (5000 dpm), antibody (1:150) and physostigmine standards (100-10,000 pg) were made using 0.01M phosphate buffer containing 150 mM sodium chloride with a pH of 7.4. […] Both standard and sample tubes were always analyzed in duplicate. The assay was carried out according to the protocol shown in Table 1 with the reagents were added to the assay tubes in the order shown.
as §2, §3, §4

[3] = tested on: antibodies to physostigmine; test: Specificity of the antibodies to physostigmine (both antibodies; RIA, HPLC-RIA); format: binding, New Zealand white rabbits; settings: for binding to the antibodies: RIA
Protocol: as §1
In the assay procedure ^3 H-Physostigmine having specificity of 19.0 Ci/mmole and purchased from the Amersham Corp. of Arlington Heights, Ill., was used as tracer. The dilution of tracer (5000 dpm), antibody (1:150) and physostigmine standards (100-10,000 pg) were made using 0.01M phosphate buffer containing 150 mM sodium chloride with a pH of 7.4. […] Both standard and sample tubes were always analyzed in duplicate. […]
The HPLC system consisted of Waters Associates liquid chromatograph equipped with a 6000 A solvent delivery system, a Model 441 absorbance detector, a U6K injector, a model 720 system controller, an Omni Scribe recorder (Houston Instruments, Houston, Tex.), a model cygnet Fraction collector (ISCO, Lincoln, Nebr.).
High pressure liquid chromatography (HPLC) was performed using a model C18 u Bondapak column (30 cm×0.39 cm. lid) (waters). The Uv detector was fixed at 245 nm with range set at 0.005 absorbance units full scale and flow rate of the mobile phase adjusted to 2 ml/min. […]
The column was operated at ambient temperature. […] Each residue was then reconstituted using the assay buffer and was analyzed for physostigmine by the RIA. […]

[4] = cited from earlier work

Row | Compound | IC50 (50% inhibition of binding of 3H-physostigmine) [1] [ng] | IC50 (50% inhibition of binding of 3H-physostigmine) [2] [ng] | also measured
1 | CN1CCC2(C)c3cc4nc5c(=O)c6c(cc-5oc4cc3N(C)C12)N(C)C1N(C)CCC61C (centres unmarked) [Eserine blue] | 575 | 600 | 
2 | CN1CC[C@@]2(C)c3cc(O)ccc3N(C)[C@@H]12 [Eseroline, eseroline] | 200 | 200 | amount required to displace radioactive physostigmine from the antibodies, relative to physostigmine [3]: ~150 times
3 | COc1ccc2c(c1)c(CC(=O)O)c(C)n2C(=O)c1ccc(Cl)cc1 [Indomethacin] | > 1000 | > 1000 | 
4 | COc1ccc2[nH]cc(CCNC(C)=O)c2c1 [Melatonin] | > 1000 | > 1000 | 
5 | CN(C)C(=O)Oc1cccc([N+](C)(C)C)c1 [Neostigmine] | > 1000 | > 1000 | binding to the antibodies [3]: did not bind to the antibodies
6 | C[n+]1ccccc1C=NO [Paralidoxime] | > 1000 | > 1000 | 
7 | CNC(=O)Oc1ccc2c(c1)[C@]1(C)CCN(C)[C@@H]1N2C [Physostigmine salts] |  |  | stability in alkaline solutions ([4]; alkaline solutions): unstable in alkaline solutions; solubility in water [4]: soluble in water; color change upon exposure to air and light ([4]; rate enhanced in the presence of moisture): gradually turn red upon exposure to air and light
8 | CN(C)C(=O)Oc1ccc[n+](C)c1 [Pyridostigmine] | > 1000 | > 1000 | binding to the antibodies [3]: did not bind to the antibodies
9 | CN1CC[C@@]2(C)C3=CC(=O)C(=O)C=C3N(C)[C@@H]12 [Rubreserine] | 248 | 224 | 
10 | NCCc1c[nH]c2ccc(O)cc12 [Serotonin] | > 1000 | > 1000 | 
11 | Eserine brown | 625 | 550 | 
